Measured values reported in ChEMBL document CHEMBL1201862, “PubChem BioAssay data set” (2004).
Values joined by “and” are separate entries in the source; they are usually repeats but may differ in a detail not shown here. Identical values can stand only once.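 A five-concentration, 48-hour dose response in 96-well plates underlies each endpoint, interpolated linearly between surrounding concentrations. GI50 marks 50% less growth.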 Active and inactive are the calls of the source. No stated cut-off is given here; in the data, active = GI50 up to about 1.1 µM and inactive = higher.

Columns and labels:
Assay in all cases: NCI tumour cell line growth inhibition, 48 h
786-0 = tested on: 786-0
A498 = tested on: A498
A549 = tested on: A549
ACHN = tested on: ACHN
BT-549 = tested on: BT-549
CAKI-1 = tested on: CAKI-1
CCRF-CEM = tested on: CCRF-CEM
COLO 205 = tested on: COLO 205
DU-145 = tested on: DU-145
EKVX = tested on: EKVX
HCC 2998 = tested on: HCC 2998
HCT-116 = tested on: HCT-116
HCT-15 = tested on: HCT-15
HL-60 = tested on: HL-60
HOP-62 = tested on: HOP-62
HOP-92 = tested on: HOP-92
HT-29 = tested on: HT-29
Hs-578T = tested on: Hs-578T
IGROV-1 = tested on: IGROV-1
KM12 = tested on: KM12
M14 = tested on: M14
MCF7 = tested on: MCF7
MDA-MB-435 = tested on: MDA-MB-435
MDA-N = tested on: MDA-N
MOLT-4 = tested on: MOLT-4
Malme-3M = tested on: Malme-3M
NCI-H23 = tested on: NCI-H23
NCI-H460 = tested on: NCI-H460
NCI-H522 = tested on: NCI-H522
OVCAR-3 = tested on: OVCAR-3
OVCAR-4 = tested on: OVCAR-4
OVCAR-5 = tested on: OVCAR-5
OVCAR-8 = tested on: OVCAR-8
PC-3 = tested on: PC-3
RPMI-8226 = tested on: RPMI-8226
RXF 393 = tested on: RXF 393
SF-268 = tested on: SF-268
SF-295 = tested on: SF-295
SF-539 = tested on: SF-539
SK-MEL-28 = tested on: SK-MEL-28
SK-MEL-5 = tested on: SK-MEL-5
SK-OV-3 = tested on: SK-OV-3
SN12C = tested on: SN12C
SNB-75 = tested on: SNB-75
SR = tested on: SR
SW-620 = tested on: SW-620
TK-10 = tested on: TK-10
U-251 = tested on: U-251
UACC-257 = tested on: UACC-257
UACC-62 = tested on: UACC-62
LOX IMVI = tested on: LOX IMVI
MDA-MB-231 = tested on: MDA-MB-231
NCI-H226 = tested on: NCI-H226
SNB-19 = tested on: SNB-19
UO-31 = tested on: UO-31

CCCCc1ccc2[n+](c1)C(C(=O)OCC)=PC2 (stereo not given)
GI50 (786-0): 72.1 µM (inactive) | GI50 (A498): > 100 µM (inactive) | GI50 (A549): > 100 µM (inactive) | GI50 (ACHN): > 100 µM (inactive) | GI50 (BT-549): > 100 µM (inactive) | GI50 (CAKI-1): > 100 µM (inactive) | GI50 (CCRF-CEM): 42.4 µM (inactive) | GI50 (COLO 205): > 100 µM (inactive) | GI50 (DU-145): > 100 µM (inactive) | GI50 (EKVX): > 100 µM (inactive) | GI50 (HCC 2998): > 100 µM (inactive) | GI50 (HCT-116): > 100 µM (inactive) | GI50 (HCT-15): 39.6 µM | GI50 (HL-60): 40.7 µM (inactive) | GI50 (HOP-62): > 100 µM (inactive) | GI50 (HOP-92): > 100 µM (inactive) | GI50 (HT-29): 42.8 µM (inactive) | GI50 (Hs-578T): 66.7 µM (inactive) | GI50 (IGROV-1): > 100 µM (inactive) | GI50 (KM12): > 100 µM (inactive) | GI50 (M14): > 100 µM (inactive) | GI50 (MCF7): 30.7 µM (inactive) | GI50 (MDA-MB-435): > 100 µM (inactive) | GI50 (MDA-N): 56.9 µM (inactive) | GI50 (MOLT-4): 37.5 µM (inactive) | GI50 (Malme-3M): > 100 µM (inactive) | GI50 (NCI-H23): 86.1 µM (inactive) | GI50 (NCI-H460): > 100 µM (inactive) | GI50 (NCI-H522): 54.2 µM (inactive) | GI50 (OVCAR-3): > 100 µM (inactive) | GI50 (OVCAR-4): > 100 µM (inactive) | GI50 (OVCAR-5): > 100 µM (inactive) | GI50 (OVCAR-8): > 100 µM (inactive) | GI50 (PC-3): > 100 µM (inactive) | GI50 (RPMI-8226): 28.2 µM (inactive) | GI50 (RXF 393): 31.9 µM (inactive) | GI50 (SF-268): > 100 µM (inactive) | GI50 (SF-295): > 100 µM (inactive) | GI50 (SF-539): > 100 µM (inactive) | GI50 (SK-MEL-28): > 100 µM (inactive) | GI50 (SK-MEL-5): > 100 µM (inactive) | GI50 (SK-OV-3): > 100 µM (inactive) | GI50 (SN12C): > 100 µM (inactive) | GI50 (SNB-75): 44.7 µM (inactive) | GI50 (SR): 32.7 µM (inactive) | GI50 (SW-620): > 100 µM (inactive) | GI50 (TK-10): > 100 µM (inactive) | GI50 (U-251): 71.4 µM (inactive) | GI50 (UACC-257): > 100 µM (inactive) | GI50 (UACC-62): > 100 µM (inactive)

COc1cc2c3c(c4cc(OC)c(OC)cc4c2cc1OC)CN1CCC[C@H]1C3 [(S)-TYLOPHORINE]
GI50 (A498): < 0.01 µM (active) | GI50 (A549): < 10 nM (active) and 13.2 nM (active) | GI50 (ACHN): < 10 nM (active) and 14.5 nM (active) | GI50 (BT-549): 22.5 nM (active) and 39.5 nM (active) | GI50 (CAKI-1): < 16.3 nM (active) and 25.8 nM (active) | GI50 (HCT-116): < 10 nM (active) and 17.9 nM (active) | GI50 (Hs-578T): 0.404 µM (active) | GI50 (LOX IMVI): < 10 nM (active) and 11.9 nM (active) | GI50 (MCF7): 0.0107 µM (active) | GI50 (MDA-MB-231): < 0.0109 µM (active) | GI50 (NCI-H226): 0.0294 µM (active) | GI50 (NCI-H522): 56.6 nM (active) and < 40.6 nM (active) | GI50 (OVCAR-3): 58.9 nM (active) and 42.3 nM (active) | GI50 (OVCAR-5): < 12.1 nM (active) and 16.6 nM (active) | GI50 (SK-MEL-28): < 13.7 nM (active) and 9.06 nM (active) | GI50 (SK-OV-3): < 12.2 nM (active) and 12.6 nM (active) | GI50 (SNB-19): < 10 nM (active) and 9.35 nM (active) | GI50 (TK-10): < 16.7 nM (active) and 19.4 nM (active) | GI50 (UACC-257): 14.3 nM (active) and 26.6 nM (active) | GI50 (UO-31): 39.9 nM (active) and < 20.8 nM (active)
